Assay results as given in patent US8759482B2, “Kinetically efficient substrate for lipoic acid ligase” (Massachusetts Institute of Technology, priority 2009, dated 2014).

How the values were obtained:
[1] = target: T1, Escherichia coli lipoic acid ligase (Lp1A) (Escherichia coli, UniProt P32099); test: Lp1A-catalyzed lipoylation kinetics (kcat, Km) by HPLC; assay type: biochemical; conditions: estimated, based on HPLC measurements
T1 sequence (P32099 1-338): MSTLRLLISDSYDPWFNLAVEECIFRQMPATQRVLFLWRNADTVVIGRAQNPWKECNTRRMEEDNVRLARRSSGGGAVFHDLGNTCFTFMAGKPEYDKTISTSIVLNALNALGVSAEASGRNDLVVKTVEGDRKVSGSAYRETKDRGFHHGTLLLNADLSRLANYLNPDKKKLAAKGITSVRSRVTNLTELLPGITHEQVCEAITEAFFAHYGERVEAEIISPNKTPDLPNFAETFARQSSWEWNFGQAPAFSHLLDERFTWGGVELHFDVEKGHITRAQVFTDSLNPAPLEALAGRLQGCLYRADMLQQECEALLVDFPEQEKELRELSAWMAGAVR
Experimental: Various concentrations of synthetic LAP2 peptide (not a fusion protein) were lipoylated with 50 nM Lp1A, 750 μM lipoic acid, and 3 mM ATP, and initial reaction rates were measured by HPLC. […] Measurements were performed in triplicate.
Using HPLC to quantify product formation, the kcat and Km values were measured for Lp1A-catalyzed lipoylation of a synthetic LAP2 peptide (without an attached fusion protein).
To measure the kcat and Km values for lipoylation, 50 nM Lp1A was combined with 750 μM lipoic acid, 2 mM ATP, and 5 mM magnesium acetate in DPBS. Varying concentrations of LAP2 (5.5, 11, 22, 44, 88, 176, or 352 μM) were used; 60 μL aliquots were removed from the 30° C. reactions at 5 min intervals, up to 20 min, and quenched with 180 mM EDTA (final concentration). HPLC was used to determine the amount of product in each aliquot, and kinetic parameters were extracted using the Michaelis-Menten equation as described previously.^13,28

Lp1A [2] = target: T2, Lp1A (Escherichia coli, UniProt P32099); conditions: Azide 7 probe; cited from earlier work
Lp1A [3] = target: T2, Lp1A; test: Cell surface lipoylation of CFP-TM fusion constructs on mammalian cells; assay type: cell-based; conditions: HEK cells, CFP-TM fusions, 1 μM Lp1A, 10 min
Experimental: FIG. 8 depicts cell surface lipoylation of LAP4.3 vs. LAP4.3D. HeLa cells expressing either LAP4.3-CFP-TM or LAP4.3D-CFP-TM were lipoylated with 1 μM Lp1A for 10 minutes. Lipoylation was detected with Alexa568-conjugated anti-lipoic acid antibody.
However, expression levels of intracellular proteins are similar, whether fused to a LAP sequence or E2p. […] Scale bar, 10 μm. […] Single cell mean fluorescein/CFP intensity ratios were tabulated for >160 cells from >18 fields of view.
Second, the LAPs were compared in a cell surface lipoylation assay (FIG. 9). CFP-TM fusion constructs were expressed in human embryonic kidney 293 (HEK) cells, and lipoylation was carried out by purified Lp1A enzyme added to the media. After 10 min of labeling, lipoylated cell surface proteins were imaged using antilipoic acid antibody. […] To quantitatively compare the labeling efficiencies of all the LAP sequences, lipoylation signal (as measured by antibody staining intensity) was plotted against CFP signal for single cells.

Lp1AW37A = Lp1AW37A (Escherichia coli, UniProt P32099, W38A); conditions: HEK cells, Lp1AW37A and 11-Br 5 min, QD605-HaloTag 5 min
Chain of Lp1AW37A (P32099 whole entry W38A): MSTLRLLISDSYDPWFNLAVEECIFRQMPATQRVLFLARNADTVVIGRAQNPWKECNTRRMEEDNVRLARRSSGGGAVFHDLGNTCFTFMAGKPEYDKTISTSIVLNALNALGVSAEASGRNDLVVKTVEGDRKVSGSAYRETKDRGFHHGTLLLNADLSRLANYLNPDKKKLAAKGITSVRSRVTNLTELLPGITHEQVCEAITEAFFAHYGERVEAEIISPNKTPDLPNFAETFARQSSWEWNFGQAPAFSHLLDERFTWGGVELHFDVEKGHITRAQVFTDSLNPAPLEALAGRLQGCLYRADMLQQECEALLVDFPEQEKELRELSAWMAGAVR
Experimental: QD605 emission is shown in the top row. Merged GFP and DIC (differential interference contrast) images are shown in the bottom row. Negative controls are shown with ATP or Lp1A omitted. Scale bars, 10 μm.
HEK 293T cells were transfected with LAP2-GFP-LDLR plasmid using Lipofectamine 2000. After 24 h in growth media (Dulbecco's Modified Eagle Medium (DMEM) with 10% fetal bovine serum (FBS)) at 37° C., enzymatic ligation of 11-Br was performed in DPBS containing 10 μM Lp1A(W37A), 500 μM 11-Br, 1 mM ATP, 5 mM Mg(OAc)2 and 1% (w/v) BSA (Fraction V, EMD) as a blocking agent for 5 min at room temperature. Cells were then rinsed three times with DPBS followed by treatment with 50 nM HaloTag-QD60531 in DPBS containing 1% BSA for 5 min at room temperature. After another three rinses with DPBS, cells were imaged in the same buffer on a Zeiss Axio Observer.Z1 inverted epifluorescence microscope using a 40X oil-immersion lens. […] Fluorescence images were normalized to the same intensity ranges.

DEVLVEIETDKAVLEVPGGEEE [LAP1]
Km [1]: > 200 µM | kcat for Azide 7 ligation (Lp1A [2]): 0.048 s⁻¹ | cell surface lipoylation (antilipoic acid antibody imaging) (Lp1A [3]): labeling was not detected | QD605 labeling at the cell surface (Lp1AW37A): undetectable
